Source: patent publication US7279183B2, “Method of reducing thrombosis and complications after arterial angioplasty using stent coated with magnesium-based compound” (Cedars-Sinai Medical Center, priority 2001, dated 2007)
Like-named read-outs stand apart in the source and are kept apart here. Blank lines part the entries; values can stand above or below the compound they belong to.

How the values were obtained:
platelet aggregation = experiment: whole blood aggregometry, agonist-induced platelet aggregation; type: cell-based, swine; details: for platelet aggregation: 3 pigs
Method: Thirty minutes after administration of the heparin (in the heparin alone) or magnesium, 3 mL venous blood was collected in a siliconized test tube containing 0.3 mL of 0.129 molar sodium citrate or sodium heparin (Becton Dickinson Vacutainer System). Whole blood aggregometry (Chronolog Corp.) was used to measure collagen (2 and 5 μg/mL)- and Adenosine diphosphate (2.5 μM)-induced platelet aggregation. Aggregation was expressed as maximal increase in electrical impedance measured in ohms at 6 minutes after the addition of agonist.

[1] = bleeding time from thigh incision; type: in vivo, swine
Method: Bleeding time is defined as the time from the creation of an incision to the point where bleeding from the incision ceases. In the experiment according to one embodiment of the present invention discussed herein, bleeding time was measured from an incision on the ventral surface of the thigh with a No. 11 surgical knife.

[2] = activated clotting time (ACT), Hemochron 400; type: in vivo, swine
Method: In the experiment discussed herein that was conducted according to one embodiment of the present invention, ACT was determined using a Hemochron 400 (International Technidyne Corp.) machine in standard fashion. See Makkar R R, Litvack F, Eigler N L, Nakamura M, Ivey P A, Forrester J S, Shah P K, Jordan R E, Kaul S, Effects of GP IIb/IIIa Receptor Monoclonal Antibody (7E3), Heparin, and Aspirin in an Ex Vivo Canine Arteriovenous Shunt Model of Stent Thrombosis, Circulation, 1997; 95(4): 1015-1021; and Makkar R R, Eigler N L, Kaul S, Nakamura M, Forrester J S, Herbert J-M, Litvack F I, Effects of clopidogrel, aspirin and combined therapy in a porcine ex vivo model of high-shear induced stent thrombosis, Eur Heart J, 1998; 19:1538-1546.

[3] = serum magnesium level, magon dye method; type: in vivo, swine; details: in words, FIG. 5
Method: Serum magnesium levels for the test subjects were measured spectrophotometrically using the magon dye method. See Elm R J, Determination of serum magnesium concentration by clinical laboratories, […], 1991-92:60-6.

[4] = magnesium sulfate intravenously, ANOVA
Method: The graph in FIG. 3 was generated by taking between 10 and 14 observations at each time point. The MABP was measured in millimeters of mercury (mmHg). The heart rate was measured in beats per minute (BPM).

[5] = Method: (§1) Twenty one low-risk patients undergoing non-acute percutaneous coronary intervention with stent implantation received a two gm bolus of intravenous MgSO4 followed by a 1.5 gm/hour infusion for four hours and a 1 gm/hour infusion for the next eight hours. […] The preset primary endpoints for this experiment were: acute thrombotic occlusion and need for platelet IIb/IIIa inhibitors bailout, death, myocardial infarction, recurrent ischemia and need for urgent revascularization at 48 hours and 30 days. The secondary safety endpoints included hypotension, bradycardia, bleeding complications and heart block within the first 24 hours.
in-stent thrombosis = system: in-stent thrombosis
Method: as §1

platelets = details: cited from earlier work
[6] = complete blood cell count; details: data not shown
[7] = system: acute platelet-dependent stent thrombosis; experiment: ex-vivo porcine arteriovenous shunt model of high-shear stent thrombosis (thrombus weight); type: in vivo, swine
Method: An experiment according to one embodiment of the present invention was performed using an ex-vivo model that primarily examines shear-mediated, platelet-dependent thrombus formation. This experiment allowed for the evaluation of the effects of magnesium, and the time-dependent nature thereof, on acute platelet-dependent stent thrombosis in an ex-vivo porcine arteriovenous shunt model of high-shear blood flow.
(§2) Experiments were performed in 10 swine weighing 25 to 30 kg. […] The right carotid artery and jugular vein were isolated and cannulated with 8F sheaths to establish an extracorporeal circuit as described previously. […] Arterial blood gases and pH were monitored periodically and maintained at normal levels by adjustment of the ventilation rate and tidal volume. Invasive arterial pressure measurement, oxygen saturation, ECG, and rectal temperature were monitored continuously. A thermostatically controlled blanket was used to maintain temperature at 37° C. Venous blood was collected for baseline platelet aggregation, complete blood cell count, and activated clotting time (ACT) measurements.
All animals received heparin at a dose of 10 U/kg as a bolus before the study to prevent thrombotic occlusion of catheters and tubing. […]

[8] = in vivo
Method: as §2
All animals received heparin at a dose of 10 U/kg as a bolus before the study to prevent thrombotic occlusion of catheters and tubing. […] At the conclusion of the experiment, blood was collected for complete blood cell counts, the carotid artery and jugular vein were ligated, and the animals were allowed to recover from anesthesia before being returned to the vivarium. Each animal was studied twice with a minimum interval of 2 weeks between each experiment.
At the end of each treatment, control stents were perfused to ensure return of stent thrombus weights towards baseline pre-treatment values. Effects on thrombus weight (TW), whole-blood platelet aggregation (PA), bleeding time (BT), activated clotting time (ACT), serum magnesium level, and complete blood count (CBC) were quantified at various time points as shown in the protocol schematic. Mean arterial blood pressure (MABP) and heart rate (HR) were monitored and recorded throughout the protocol.

[9] = system: acute platelet-dependent stent thrombosis; details: 10 U/kg bolus, average of 200 U per swine; cited from earlier work
[10] = in words, beyond the heparin effect

Compound: O=S(=O)([O-])[O-].[Mg+2] [Mg, magnesium sulfate]
- effect on platelet aggregation (platelet aggregation; ADP (2.5 μM), data not shown): no effect
- whole-blood platelet aggregation (platelet aggregation; FIG. 5, 5 μg/mL collagen, with addition of magnesium, from 25±3, not significant): 21±5 ohms
- platelet aggregation (maximal increase in electrical impedance) (platelet aggregation; Mg-late alone, 6 minutes after agonist, baseline 25±3): 22±3 ohms
- platelet aggregation (maximal increase in electrical impedance) (platelet aggregation; Mg-treated animals, >40 minutes post-bolus (Mg-late)): 21.0±5 ohms
- platelet aggregation (maximal increase in electrical impedance) (platelet aggregation; Mg-treated animals, within 20 minutes post-bolus (Mg-early)): 23±4 ohms
- platelet aggregation (platelet aggregation; citrate-stabilized blood, post-Mg (25±3 pre)): 22±3 ohms
- effect on platelet aggregation (platelet aggregation; collagen 2 μg/ml, data not shown): no effect
- platelet aggregation (platelet aggregation; heparin-stabilized samples, post-Mg (26±2 pre)): 27±2 ohms
- effect on platelet aggregation (platelet aggregation; in words, listed as Magnesium): no significant effects
- effect on platelet aggregation (platelet aggregation; in words, listed as magnesium): no significant effect
- effect on bleeding time [1, 10]: no significant effects
- effect on activated clotting time (ACT) [2, 10]: no significant effects
- serum magnesium levels compared to control [3]: higher
- effect on heart rate ([4]; listed as Magnesium): no significant effects
- effect on mean arterial blood pressure (MABP) ([4]; listed as Magnesium): no significant effects
- effect on heart rate ([4]; listed as magnesium): no statistically significant effects
- effect on mean arterial blood pressure (MABP) ([4]; listed as magnesium): no statistically significant effects
- effect on heart rate ([5]; patients, IV MgSO4): did not have a significant effect
- effect on mean arterial blood pressure ([5]; patients, IV MgSO4): did not have a significant effect
- serum magnesium level ([5]; post-bolus (2 gm IV MgSO4), baseline 2.1±0.3, P<0.0001): 3.2 ± 0.3 mg/dL
- serum magnesium level ([5]; post-infusion (total 16 gm)): 3.5 ± 0.8 mg/dL
- GP IIb/IIIa inhibitors bailout (in-stent thrombosis; 21 patients): no case
- death (in-stent thrombosis; 21 patients): not seen
- myocardial infarction (in-stent thrombosis; 21 patients): not seen
- urgent revascularization (in-stent thrombosis; 21 patients): not seen
- coronary artery blood flow at end of intervention (in-stent thrombosis; all cases, 21 patients): normal coronary artery blood flow (TIMI 3 flow)
- hemostatic or hemodynamic complications (in-stent thrombosis; human subjects): without any hemostatic or hemodynamic complications
- concentration at which anti-adhesive effect may occur (platelets): < 4 mEq/L
- concentration at which anti-aggregatory effect may occur (platelets): > 5 mEq/L
- effect on hematocrit [6]: no significant effects
- effect on platelet counts [6]: no significant effects
- effect on white blood cell counts [6]: no significant effects

- bleeding time ([1]; in vivo): 5.3±0.6
- effect on hematocrit [8]: no significant effects
- effect on platelet counts [8]: no significant effects
- effect on white blood cell counts [8]: no significant effects
Compound: heparin
- effect on thrombus formation (FIG. 2(a)) ([7]; given alone, magnesium both early and late groups): reduce thrombus formation slightly
- reduction of stent thrombus weight (TW) ([7]; heparin alone, 50 U/kg IV bolus then 25-50 U/kg/hr, versus pre-treatment, mean±SD): 48±16%
- platelet aggregation (maximal increase in electrical impedance) (platelet aggregation; heparin alone, 6 minutes after agonist, baseline 25±3): 24±6 ohms
- ACT ([2]; prolonged from 109±8 seconds, P<0.01): 185 ± 36 s
- effect on thrombus formation at high-shear conditions [9]: negligible effects
